Data as given in patent US20090054470A1, “USE OF MITOCHONDRIAL ELECTRON TRANSPORT INHIBITORS TO CONTROL FOULING ORGANISMS” (priority 2005, published 2009).

What was measured:
[1] = test system: Artemia salina instar II larvae; test: In vitro efficacy against Artemia salina (larval survival); type: in vivo
Description: 1. In Vitro Efficacy Against Artemia salina
The crustaceous marine animal Artemia salina was used as a model organism for other marine fouling organisms.
An artificial seawater medium inoculated with approximately 30 Artemia salina instar II larvae was introcuced in each well of a 24 well microtiter plate (2 ml per well). This culture was incubated with the test compound dissolved in dimethylsulfoxide (8000 ppm stock solution in DMSO) in order to have a final concentration of the test compound ranging from 0.027 ppm to 20 ppm in 24 steps. Survival of the Artemia salina larvae was evaluated after 24 and 48 hours. Zinc pyrithione was used as a reference art known antifouling agent and a DMSO solution without test compound was used as control.
The ECX value (in […]=ppm): lowest concentration of the test compound at which moderate activity (reduced vitality of Artemia salina larvae) was observed and has been listed below in Table 1.

animal fouling = test: Field evaluation of marine antifouling activity (painted PVC boards immersed in sea water); details: Oosterschelde at Bruinisse, average of two scores; for Fouling scores after 12 weeks: rosin paint on PVC panels; for Fouling scores after x weeks: vinylite paint on PVC panels
Text: 2. Field Evaluation of Marine Antifouling Activity […]
Composition vinylite paint (% w/w): 9.1% test compound (74% in the dried coating), 3.2% vinylite, 87.7% cyclohexanone.
Composition rosin paint (% w/w): 6.7% test compound (18.4% in the dried coating), 34.9% rosin (69.6% in xylene), 6.3% vinyl resin, 5.7% tritolyl phosphate, 45.0% methyl isobutylketone and 1.4% xylene.
The PVC boards (10×2×0.5 cm) were painted twice to obtain a coating layer of 140 g/m^2 having a thickness of 50 μm and dried for two weeks before immersion in sea water. The exact quantity of test compound on each board was determined by comparing the initial and final weights of the PVC boards. The PVC boards were placed in a frame and suspended from the bottom of a raft at a depth of 0.6 m below the sea water surface level.
Rating system to evaluate surface fouling:
score 0: no growth on the panel score 1: up to 20% of the surface covered by fouling organisms score 2: between 21% and 40% of the surface covered by fouling organisms score 3: between 41% and 60% of the surface covered by fouling organisms score 4: between 61% and 80% of the surface covered by fouling organisms score 5: more than 81% of the surface covered by fouling organisms
Figures are an average of two scores (back and front of test panel).

Molecule	ECX (lowest concentration at which reduced vitality of Artemia salina larvae) ([1]; 24 hours)	MIC (lowest concentration at which all Artemia salina larvae dead) ([1]; 24 hours)	ECX (lowest concentration at which reduced vitality of Artemia salina larvae) ([1]; 48 hours)	MIC (lowest concentration at which all Artemia salina larvae dead) ([1]; 48 hours)	Fouling scores after 12 weeks (animal fouling)	Fouling scores after x weeks (animal fouling; 4 weeks)	Fouling scores after x weeks (animal fouling; 8 weeks)	Fouling scores after x weeks (animal fouling; 15 weeks)
CCc1nn(C)c(C(=O)NCc2ccc(C(C)(C)C)cc2)c1Cl [tebufenpyrad]	1.13 mg/l (=ppm)	2 mg/l (=ppm)	0.84 mg/l (=ppm)	1.5 mg/l (=ppm)	1.5	–	–	–
CC(C)(C)c1ccc(CSc2cnn(C(C)(C)C)c(=O)c2Cl)cc1 [pyridaben]	0.36 mg/l (=ppm)	2 mg/l (=ppm)	0.36 mg/l (=ppm)	0.48 mg/l (=ppm)	1.5	–	–	–
CC(C)(C)c1ccc(CCOc2ncnc3ccccc23)cc1 [fenazaquin]	0.84 mg/l (=ppm)	1.5 mg/l (=ppm)	0.84 mg/l (=ppm)	1.5 mg/l (=ppm)	–	0	0	3 (score 3: between 41% and 60% of the surface covered by fouling organisms)
Zinc pyrithione	8.44 mg/l (=ppm)	20 mg/l (=ppm)	6.33 mg/l (=ppm)	11.25 mg/l (=ppm)	–	–	–	–
